In series [1] the target is T1, GST fusion human Keap1 (amino acid residue: 325-624) protein (Homo sapiens, UniProt Q14145).
T1 construct: GST fusion human Keap1 (amino acid residue: 325-624) protein; purchased Protein tech Ag0779
Kind of series: Keap1-Nrf2 binding inhibition test (fluorescence polarization). The conditions noted are these: compound concentration of 100 nM; read-out: inhibition rate. As to the method:
The inhibitory activity of each test compound on the binding between Nrf2 and Keap1 was measured by the fluorescence polarization method. A solution consisting of 20 mM tris-hydrochloride pH7.5 (NIPPON GENE CO., LTD., REF: 318-90225), 150 mM NaCl [FUJIFILM Wako Pure Chemical. Corporation, REF: 191-01665], 0.05% Tween 20 (BioRAD, REF: 161-0781), and 5 mM DTT (FUJIFILM Wako Pure Chemical Corporation, REF: 049-08972) was used as a buffer solution. To a test compound solution (70 μL) adjusted to each concentration with 10% DMSO (FUJIFILM Wako Pure Chemical Corporation, REF: 043-07216) was added a buffer solution (350 μL) comprising 6 nM FITC-labeled Nrf2 peptide (FITC-Ahx-LDEETGEFL-NH2, Invitrogen) and 0.2 mg/mL of BSA (FUJIFILM Wako Pure Chemical Corporation, REF: 017-22231). Each 120 μL of the resulting mixture was dispensed into a black 96 well plate, and a buffer solution (80 μL) comprising 2.5 nM GST fusion human Keap1 (amino acid residue: 325-624) protein (Protein tech, REF: Ag0779) was added thereto. A Keap1-free buffer solution was added to some wells to prepare negative controls. Meanwhile, compound-free wells were used as positive controls. The plate was incubated at room temperature for 30 minutes, and each fluorescence polarization at excitation wavelength of 482 nm and fluorescence wavelength of 530 nm was measured by using a plate reader Clariostar (BMG Labtech). The fluorescence polarization of the negative control was set to be 100% inhibition, fluorescence polarization of the positive control was set to be 0% inhibition, and the inhibition rate of each test compound at 100 nM was calculated by using the following equation. Inhibition rate (%)=100−((Fluorescence polarization when test compound was added−Fluorescence polarization of negative control)/(Fluorescence polarization of positive control−Fluorescence polarization of negative control))×100
Background: Polarisation of emitted light reports the rotation of a fluorescent probe.

The test system of series [2] is NQO1. In words: NQO1 expression induction test in mouse kidney (single administration). Format: in vivo. The conditions noted are these: Mus musculus, po, 6 h, BALB/c mouse kidney, 6 hours after administration, ratio to control group. As to the method:
Each test compound solution for administration was prepared by dissolving or suspending each test compound into a 0.5 w/v % aqueous solution of methylcellulose (0.5% MC) (manufactured by Wako Pure Chemical Industries, Ltd.).
Each prepared test compound was orally administered to a BALB/c mouse (female, provided by Charles River Laboratories Japan, Inc.). Non-treated group was used as a control group. After 6 hours from the administration, each mouse was anesthetized with isoflurane, and euthanized with bloodletting by incising a lower aorta. Immediately, the left kidney was excised, cut into small pieces, and then the cut kidney pieces were transferred to RNA later (Thermo Fisher Scientific).
Then, mRNA was extracted from the collected kidney pieces by using NucleoSpin (registered trademark) RNA Kit (Takara Bio Inc.), each concentration was quantified by FlexStation3 (Molecular Devices), and then the concentration was adjusted to a constant concentration. A reverse transcription synthesis of cDNA was carried out from the mRNA with the constant concentration by using PrimeScript™ RT reagent Kit with gDNA Eraser and PCR Thermal Cycler (Takara Bio Inc.). Then, in addition to the resulting cDNA, SYBR (registered trademark) Premix Ex Taq™ II and NQO1, GAPDH primer (Takara Bio Inc.) were used to carry out Real-time PCR by PCR Thermal Cycler Dice Real time (Takara Bio Inc.), and the NQO1 expression was quantified by using the GAPDH expression as the reference.
In order to evaluate the NQO1 expression induction in each group, the NQO1 expression induction ratio was calculated by using the following equation. (NQO1 expression induction ratio)=(Average NQO1 expression in test compound administered group)[…](Average NQO1 expression in control group)

A short description of series [3]: Metabolism test using human liver microsome fractions. Format: in vitro ADME. The conditions noted are these: human liver microsomes, test compound 10 μmol/L, NADPH and UDP-glucuronic acid, 37° C. As to the method: A reaction composition solution (comprising NADPH Regenerating System, Solution A (manufactured by Corning Inc., REF. 451220) (50 μL), NADPH Regenerating System, Solution B (manufactured by Corning Inc., REF. 451200) (10 μL), 250 mM UDP-glucuronic acid (40 μL), UGT Reaction Mix Solution B (manufactured by Corning Inc., REF. 451320) (200 μL), and distilled water (640 μL)) in which human liver microsomes (manufactured by Xenotech, Cat. No. H610) or monkey liver microsomes (manufactured by Xenotech, Cat. No. P2000) (corresponding to 1 mg of protein) were suspended was prepared. After the solution was incubated at 37° C. for 5 minutes, each test compound dissolved into DMSO (manufactured by FUJIFILM Wako Pure Chemical Corporation, Code No. 043-07216) was added to the solution so that the final concentration was set to be 10 μmol/L, and a reaction was initiated. After 0, 5, 10, 15, 20, and 30 minute(s) from the initiation of the metabolism reaction, 100 μL of the reaction solution was taken out of the reaction system, and added to 200 μL of acetonitrile to stop the reaction. After the reaction was completed, the reaction solution was subjected to a work-up such as deproteinization, and then subjected to an UV-HPLC analysis to carry out the following analysis.
The peak area of each test compound was calculated by LabSolution software (Shimadzu Corporation), and the residual ratio (%) at each culture time of test material was calculated by the following equation. Residual ratio (%)=Peak area at each culture time[…]Peak area at 0 (initial time)
Next, the residual amount (nmol/mg/mL) at each culture time of test material was calculated by the following equation. Residual amount (nmol/mg/mL)=Initial concentration of reaction solution (10 nmol/mg/mL)×residual ratio÷100
Finally, a graph in which the reaction time was plotted at horizontal axis and the residual amount was plotted at longitudinal axis was prepared on Excel, and the inclination was calculated as the elimination rate (pmol/min/mg-P) within the time range in which the graph was deemed linear.

Series [4] has as its system NQO1. Kind of series: NQO1 enzyme induction test (in vitro) in Hepa1c1c7 cells. Format: cell-based. The conditions noted are these: Mus musculus, Hepa-1c1c7, 48 h, concentration to elevate the NQO1 activity by 1.5 times, about 48 hours, read-out: EC150. As to the method: Each NQO1 assay was carried out by modifying a known method (Anal Biochem 1998; 169: 328-, Methods Enzymol 2004; 382: 243-). Hepa1c1c7 cells (mouse hepatocyte line manufacture by DS Pharma Biomedical Co., Ltd., REF. No. 95090613) were cultured (5% CO2, 37° C.). The cells were cultured in MEMα (manufactured by FUJIFILM Wako Pure Chemical Corporation, REF. 135-15175) medium comprising 10% FBS (manufactured by GIBCO, REF. 10082) and […]/streptomycin/amphotericin B (manufactured by GIBCO, REF. 15240), and dispensed into a 96 well plate (manufactured by Costar, REF. 3610) at 2.0×10^3 cells/well. On the next day, test compound (final concentration of […]: 0.1%) dissolved into DMSO (manufactured by FUJIFILM Wako Pure Chemical Corporation, REF. 043-07216) was added to each well, and the plate was further cultured for about 48 hours.
A cell lysate manufactured by Cell signaling Technology, Inc. (REF. 9803) with the addition of a Protease Inhibitor manufactured by Roche Diagnostics K.K. (REF. 11-873580001) was used. A reaction solution (which is a solution comprising trishydrochloric acid (25 mM), albumin […], Tween-20 (0.01%), glucose-6-phosphate dehydrogenase (2 U/mL), flavin-adenine dinucleotide (5 μM), glucose-6-phosphate (1 μM), nicotinamide adenine dinucleotide phosphate (30 μM), 3-(4,5-dimethyl-2-thiazolyl)-2,5-diphenyltetrazolium bromide (MTT) (0.03%), and menadione (50 μM)), and a stop solution (which is a solution comprising dicumarol (0.3 mM) and potassium dihydrogen phosphate (5 mM), pH 7.4) were prepared. After the medium was removed, cell lysate (50 μL) was added thereto, and the resulting mixture was shaken at room temperature for 20 minutes. The reaction solution (200 μL) was added thereto, and the resulting mixture was left to stand at room temperature for 5 minutes. The stop solution (50 μL) was added thereto, and absorbance at 540 nm (reference 750 nm) was measured.
Cell number was measured by Cell Titer Glo assay (manufactured by Promega Corporation, REF. G9242) by using another plate prepared according to the same conditions as those described above, and correction of absorbance was carried out. The test result was analyzed by Excel, and the EC150 value which is the concentration to elevate the NQO1 activity by 1.5 times was calculated.

Bounds are passed on as bounds.

T1 sequence (Q14145 325-624): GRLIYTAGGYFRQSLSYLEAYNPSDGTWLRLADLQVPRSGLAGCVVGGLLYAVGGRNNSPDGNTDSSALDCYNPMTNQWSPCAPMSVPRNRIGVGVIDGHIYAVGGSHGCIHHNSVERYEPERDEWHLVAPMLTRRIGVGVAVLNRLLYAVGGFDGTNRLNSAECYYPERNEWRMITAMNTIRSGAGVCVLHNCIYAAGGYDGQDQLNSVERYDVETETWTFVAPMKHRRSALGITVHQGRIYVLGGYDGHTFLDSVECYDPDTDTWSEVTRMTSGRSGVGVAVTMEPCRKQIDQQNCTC

For `CC[C@@H]1CN(Cc2cc(C(c3ccc4c(nnn4C)c3C)C(C)(C)C(=O)O)ccc2C)Cc2nc3ccccc3cc2O1` (single isomer, unassigned) [Example 37], the inhibition – broadly, the drop in the measured response relative to a control, in per cent – at 0.1 µM in series [1] is not below 50%. In addition, the fold induction (as a rule, the signal under treatment as a multiple of the control signal) at 10 mg/kg in the series with NQO1 [2] was more than 6. Moreover, the Human metabolic rate result in series [3] is on record as “A (metabolic rate<100 pmol/min/mg protein)”.
Taken in the same sequence, the figures for `CC[C@@H]1CN(Cc2cc(C(c3ccc4c(nnn4C)c3C)C(C)(C)C(=O)O)ccc2C)Cc2cc3cccnc3cc2O1` (single isomer, unassigned) [Example 39] were not below 50%, 3 to 6 and “A (metabolic rate<100 pmol/min/mg protein)”.
`CC[C@@H]1CN(Cc2cc(C(c3ccc4c(nnn4C)c3C)C(C)(C)C(=O)O)ccc2C)Cc2cc3ncccc3cc2O1` (single isomer, unassigned) [Example 41]: in series [1], the inhibition at 0.1 µM is not below 50%. Moreover, the fold induction at 10 mg/kg in the series with NQO1 [2] was more than 6. In series [3], the Human metabolic rate result is reported as “A (metabolic rate<100 pmol/min/mg protein)”.
In the same order, the values of `CC[C@@H]1CN(Cc2cc(C(c3ccc4c(nnn4C)c3C)C(C)(C)C(=O)O)ccc2C)Cc2c(ccc3cn[nH]c23)O1` (single isomer, unassigned) [Example 43] are not below 50%, more than 6 and “A (metabolic rate<100 pmol/min/mg protein)”.
As for `CC[C@@H]1CN(Cc2cc(C(c3ccc4c(nnn4C)c3C)C(C)(C)C(=O)O)ccc2C)Cc2ncc3ccccc3c2O1` (single isomer, unassigned) [Example 45], the inhibition at 0.1 µM in series [1] was not below 50%. Besides, the fold induction at 10 mg/kg in the series with NQO1 [2] was more than 6. The Human metabolic rate entry in series [3] is on record as “A (metabolic rate<100 pmol/min/mg protein)”.
Taken in the same sequence, the figures for `CC[C@@H]1CN(Cc2cc(C(c3ccc4c(nnn4C)c3C)C(C)(C)C(=O)O)ccc2C)Cc2cnc3ccccc3c2O1` (single isomer, unassigned) [Example 47] were not below 50%, more than 6 and “B (100≤metabolic rate<150 pmol/min/mg protein)”.
Consider `Cc1ccc(C(c2ccc3c(nnn3C)c2C)C(C)(C)C(=O)O)cc1CN1Cc2cc3ncccc3cc2OC2(CC2)C1` (single isomer, unassigned) [Example 85, 3-(3-((3′H-spiro[cyclopropane-1,2′-[1,4]oxazepino[7,6-g]quinoline]-4′(5′H)-yl)methyl)-4-methylphenyl)-3-(1,4-dimethyl-1H-benzo[d][1,2,3]triazol-5-yl)-2,2-dimethylpropanoic Acid], for which the inhibition at 0.1 µM in series [1] was not below 50%. For the same compound, in the series on NQO1 [4], the EC (1.5-fold NQO1 activity) fell in the range of 0.0005 to 0.005 µM. In addition, the Human metabolic rate entry in series [3] is listed as “A (metabolic rate<100 pmol/min/mg protein)”.
Consider `CC[C@H]1CN(Cc2cc(C(c3ccc4c(nnn4C)c3C)C(C)(C)C(=O)O)ccc2C)Cc2ncc3ccccc3c2O1` (single isomer, unassigned) [Example 89-(b)], for which the inhibition at 0.1 µM in series [1] was not below 50%. Further, in the series with NQO1 [2], the fold induction at 10 mg/kg was in the range of 3 to 6. Besides, in series [3], the Human metabolic rate result is “E (metabolic rate≥250 pmol/min/mg protein)”.
On to `CC[C@@H]1CN(Cc2cc(C(c3ccc4c(nnn4C)c3C)C(C)(C)C(=O)O)ccc2C)Cc2c(ccc3c2CCCC3)O1` (stereo partly drawn) [Example 5-(b), 3-(1,4-dimethyl-1H-benzo[d][1,2,3)triazol-5-yl)-3-(3-(((R)-4-ethyl-3,4,8,9,10,11-hexahydronaphtho(1,2-f) (1,4]oxazepin-2(1H)-yl)methyl)-4-methylphenyl)-2,2-dimethylpropanoic Acid], for which, in the series on NQO1 [4], the EC (1.5-fold NQO1 activity) lay in the range of 0.05 to 0.5 µM.
Consider `CCCC1CN(Cc2cc(C(c3ccc4c(nnn4C)c3C)C(C)(C)C(=O)O)ccc2C)Cc2cc3ncccc3cc2O1` (stereo not shown) [Example 77-(b), 3-(1,4-dimethyl-1H-benzo[d][1,2,3]triazol-5-yl)-2,2-dimethyl-3-(4-methyl-3-((2-propyl-2,3-dihydro-[1,4]oxazepino[7,6-g]quinolin-4 (5H)-yl)methyl)phenyl)propanoic Acid], for which, in series [1], the inhibition at 0.1 µM was not below 50%. For the same compound, the fold induction at 20 mg/kg with NQO1 [2] (Dose 20 mg/kg) is more than 6. Further, the Human metabolic rate result in series [3] is recorded as “B (100≤metabolic rate<150 pmol/min/mg protein)”.

Values taken from patent publication US12559504B2, “Benzotriazole derivative” (UBE CORPORATION, priority 2019, dated 2026).
